{"source": "patent US20260355318A1", "about": "“MOLECULAR MACHINES FOR TREATMENT OF CANCER, FUNGAL INFECTIONS, OR BACTERIAL INFECTIONS” (priority 2022, published 2026)", "key": {"[1]": {"test": "Estimated rotation rate after light activation", "conditions": "for estimated rotation rate after light activation: based on known motors with similar core skeletons"}, "C. albicans [2]": {"tested_on": "C. albicans", "test": "Killing of C. albicans by MM 1 in de-energized, inhibited, uncoupled cells or with scavengers", "type": "cell-based, Candida albicans", "conditions": "for effect of scavenger on MM-induced killing: MM 1 2×MIC", "protocol": "FIG. 8: Survival curves of de-energized versus exponential, fully energized cells of C. albicans treated with visible-light-activated MM 1 (2×MIC). Energy depletion of C. albicans was achieved by resuspending cells in de-energization buffer (1 μM antimycin A, 5 mM 2-deoxy-D-glucose, 50 mM HEPES buffer, pH 7.0) for 3 h, as described for the determination of efflux pump activity in Example 1. Survival curves were generated according to the procedure described in Example 1 for time-kill assays. The dashed line indicates the detection limit of the method. The results are expressed as the average of at least three independent replicates±the standard error of the mean.\nFIG. 9: Effect of pre-treatment with drugs targeting different individual components of the electron transport chain (see table inset) on the killing of C. albicans by light-activated MM 1 (2×MIC). Survival curves were generated according to the procedure described in Example 1 for time-kill assays. The dashed line indicates the detection limit of the method. The results are expressed as the average of at least three independent replicates±the standard error of the mean.\nFIG. 10: Effect of pre-treatment with the uncoupling agents carbonyl [COMPOUND LEFT OUT] 4-(trifluoromethoxy)phenylhydrazone (FCCP) and carbonyl [COMPOUND LEFT OUT] 3-chlorophenylhydrazone (CCCP) on the killing of C. albicans by light-activated MM 1 (2×MIC). Survival curves were generated according to the procedure described in Example 1 for time-kill assays. The dashed line indicates the detection limit of the method. The results are expressed as the average of at least three independent replicates #the standard error of the mean.\nSurvival curves were generated according to the procedure described in Example 1 for time-kill assays. The dashed line indicates the detection limit of the method. The results are expressed as the average of at least three independent replicates±the standard error of the mean.\nFIGS. 12A-12C show the effect of growth in the presence of different reactive oxygen species (ROS) scavengers and the iron scavenger 2,2′-dipyridyl (DP) on MM 1-induced killing of C. albicans. […] The results are expressed as the average of at least three independent replicates±the standard error of the mean. (FIG. 12B) Growth curves of C. albicans in the presence and absence of the iron scavenger DP, determined by monitoring the absorbance at 630 nm over time in a microplate reader. […] (FIG. 12C) Time profiles of mitochondrial ROS levels in C. albicans grown with and without DP after treatment with visible-light-activated MM 1 (2×MIC), detected with the MitoROS™ 580 fluorescent probe, according to the experimental procedure described in Example 1. […]"}, "C. albicans [3]": {"tested_on": "C. albicans", "test": "MIC, visible-light-activated MMs and conventional antifungals, C. albicans", "type": "cell-based, Candida albicans (ATCC 18804)", "conditions": "Candida albicans, read-out: MIC of antifungal agent", "protocol": "C. albicans cell suspensions were incubated with increasing concentrations of MMs and irradiated with 405-nm light at 292 mW cm^−2 for 5 min (87.6 J cm^−2). The minimum inhibitory concentration (MIC) was defined as the MM concentration resulting in no visible fungal growth after irradiation with 87.6 J cm^−2 of 405-nm light.\nCell suspensions for susceptibility testing (MMs and conventional antifungals) were prepared per the Clinical & Laboratory Standards Institute (CLSI) guidelines (CLSI, 2017; CLSI, 2008). Before testing, yeasts (C. albicans and S. cerevisiae) were sub-cultured in Sabouraud Dextrose Agar-Emmons Modification (SDAE) plates and grown for 24 h at 30 °C. Five independent colonies from 24-h-old plates were collected and diluted to ~10^4 colony forming units (CFU) per mL in sterile saline (CLSI, 2017). Molds (A. fumigatus and the dermatophytes T. rubrum and M. gypseum) were sub-cultured on SDAE medium and incubated for 7 days at 28 °C. Conidia were recovered by covering the plates with sterile distilled water and scraping the colonies. The suspensions were filtered (8-μm pore size) and diluted in saline to ~10^4 CFU mL^−1 (Santos and Hamdan, 2005).\nAfter a 30-min incubation in the dark, cell suspensions were transferred to small, sterilized glass beakers, which were then placed in a water bath. Each sample was irradiated with 405-nm light at 292 mW cm^−2 for 5 min, corresponding to a light dose of 87.6 J cm^−2, determined using an S415C thermal power sensor (Thorlabs, Newton, MA, USA). During irradiation, the cell suspensions were agitated with a small metal stirrer. A thermocouple probe (model SC-TT-K-30-36-PP; Omega Engineering, Inc., Stanford, CT, USA) was used to monitor the temperature during irradiation. Irradiated cell suspensions were inoculated in 3-(N-morpholino) propanesulfonic acid (MOPS)-buffered Roswell Park Memorial Institute Medium (RPMI) 1640 (pH 7.0). Tubes were incubated at 30 ° C for 48 h (yeasts) and 28 ° C for 7 days (molds). The antifungal or MM concentration resulting in no visible growth was defined as the minimum inhibitory concentration (MIC) (CLSI, 2017; CLSI, 2008). Similarly prepared cell suspensions were used to determine the MIC of conventional antifungals."}, "E. coli [4]": {"tested_on": "E. coli", "test": "MIC, E. coli", "type": "cell-based, Escherichia coli BW25113", "conditions": "E. coli, broth microdilution; for MIC: Escherichia coli, read-out: Antibiotic MIC"}, "E. coli [5]": {"tested_on": "E. coli", "test": "Checkerboard interaction with antibiotics (MIC, FIC index), E. coli", "type": "cell-based, Escherichia coli", "protocol": "To evaluate synergy between conventional antibiotics and MM in E. coli, the fractional inhibitory concentration (FIC) index (Hall et al., 1983) was determined using a modified checkerboard microtiter test in an 8-by-8 well configuration. Briefly, E. coli cell suspensions were prepared as described for MIC determination with an increasing concentration (0.1-40 μM) of the different MMs, followed by irradiation for 5 min at 146 mW cm^−2. […] The FIC was calculated after dividing the MIC of each antibiotic in combination with different MM by the MIC of the antibiotic alone. The FIC index, obtained by adding both FICs, was interpreted as indicating a synergistic effect if it was ≤0.5, as additive or indifferent if it was >0.5 and ≤2.0, and as antagonistic if it was >2.0 (Hall et al., 1983)."}, "A. baumannii": {"tested_on": "A. baumannii", "test": "MIC, A. baumannii", "type": "cell-based, Acinetobacter baumannii", "conditions": "Acinetobacter baumannii, read-out: Antibiotic MIC", "protocol": "(§1) The appropriate volume of an MM stock at 8 mM necessary to achieve a concentration ranging from 0.3125 to 40 μM was pipetted into a 2 mL microcentrifuge tube to which 1 mL of cell suspension prepared as previously described was added. Corresponding negative controls (DMSO only) were prepared in the same way. The mixture was gently mixed by pipetting and incubated in the dark at 30 or 37 ° C, depending on the strain, for 30 min with agitation (220 rpm). Afterward, MM- or DMSO-treated cells were dispensed in one well of a 24-well plate positioned in the center of the light beam (405 nm LED Light, Prizmatix, UHP—F-5-405) placed at the appropriate distance necessary to achieve the desired light intensity of 304 mW cm-2, 146 mW cm2 or 87 mW cm2, as measured with a handheld digital power meter console coupled to an S415C thermal power sensor head (Thorlabs, Newton, MA, USA). The temperature during irradiation was monitored using a thermocouple probe (Model SC-TT-K-30-36-PP; Omega Engineering, Inc., Stanford, CT, USA). Samples were agitated during irradiation. Dark controls were prepared as previously described except that no irradiation was provided.\n(§2) For MIC determination, samples treated with a range of concentrations of the different MM, as described above and were irradiated one at a time for 5 min at 146 mW cm^−2 (43.8 J cm^−2), after which irradiated aliquots were collected and inoculated into 1 mL MHB in a 2 mL microcentrifuge tube. Samples were incubated overnight at 30 or 37 ° C, depending on the strain, without agitation. Corresponding non-irradiated samples and negative controls (without bacteria) were also included. The following day, cultures were inspected for growth and the MIC was identified. The experimental procedure used to determine the MIC of visible light-activated MMs is schematically depicted in FIG. 26."}, "P. aeruginosa": {"tested_on": "P. aeruginosa", "test": "MIC, P. aeruginosa", "type": "cell-based, Pseudomonas aeruginosa", "protocol": "as §1, §2"}, "S. aureus": {"tested_on": "S. aureus", "test": "MIC, S. aureus", "type": "cell-based, Staphylococcus aureus", "conditions": "S. aureus, broth microdilution", "protocol": "as §1, §2"}}, "data": [{"compound": "COc1cc2c(c3ccccc13)/C(=C1\\c3ccccc3Sc3ccc(NCCN(C)C)cc31)[C@H](C)C2", "note": "(racemic) [DL-5-872]", "values": [{"measurement": "estimated rotation rate after light activation", "setting": "[1]", "value": 3, "unit": "MHz"}]}, {"compound": "C[C@@H]1Cc2ccc3c(NCCN(C)C)cccc3c2C1=C1c2ccccc2Sc2ccccc21", "note": "(racemic) [DL-5-901]", "values": [{"measurement": "estimated rotation rate after light activation", "setting": "[1]", "value": 3, "unit": "MHz"}]}, {"compound": "C[C@@H]1Cc2ccc3c(N(C)CCN(C)C)cccc3c2C1=C1c2ccccc2Sc2ccccc21", "note": "(racemic) [DL-5-902]", "values": [{"measurement": "estimated rotation rate after light activation", "setting": "[1]", "value": 3, "unit": "MHz"}]}, {"compound": "C[C@@H]1Cc2ccc3c(NCCN)cccc3c2C1=C1c2ccccc2Sc2ccccc21", "note": "(racemic) [DL-5-903]", "values": [{"measurement": "estimated rotation rate after light activation", "setting": "[1]", "value": 3, "unit": "MHz"}]}, {"compound": "c1ccc(-c2ccccn2)nc1", "note": "[2,2′-dipyridyl]", "values": [{"measurement": "effect of scavenger on MM-induced ROS generation", "setting": "C. albicans [2]", "value": "did not impact MM-induced ROS generation"}, {"measurement": "effect of scavenger on MM-induced killing", "setting": "C. albicans [2]", "value": "mitigation of MM-induced killing"}]}, {"compound": "Nc1nc(=O)[nH]cc1F", "note": "[5-Fluorocytosine (5-FC), 5-Fluorocytosine]", "values": [{"measurement": "MIC", "setting": "C. albicans [3]", "value": 1, "unit": "µg/mL"}]}, {"compound": "C[C@@H]1CSc2ccc3ccccc3c2/C1=C1\\c2ccccc2Sc2cc(NCCN(C)C)ccc21", "note": "[ARV-3-202, reference compound]", "values": [{"measurement": "estimated rotation rate of slow MM", "setting": "[1]", "value": "~ 10^−6 Hz"}]}, {"compound": "CC1(C)S[C@@H]2[C@H](NC(=O)[C@H](N)c3ccccc3)C(=O)N2[C@H]1C(=O)O", "note": "[Ampicillin, reference compound]", "values": [{"measurement": "MIC", "setting": "E. coli [4]", "value": 0.063, "unit": "µg/mL"}]}, {"compound": "O=C(O)c1cn(C2CC2)c2cc(N3CCNCC3)c(F)cc2c1=O", "note": "[Ciprofloxacin, reference compound]", "values": [{"measurement": "MIC", "setting": "E. coli [4]", "value": 0.008, "unit": "µg/mL"}]}, {"compound": "OC(Cn1cncn1)(Cn1cncn1)c1ccc(F)cc1F", "note": "[Fluconazole (FLC), Fluconazole]", "values": [{"measurement": "MIC", "setting": "C. albicans [3]", "value": 0.5, "unit": "µg/mL"}]}, {"compound": "CC1(C)CC(NC(=O)C[P+](c2ccccc2)(c2ccccc2)c2ccccc2)CC(C)(C)N1[O]", "note": "[MitoTEMPO]", "values": [{"measurement": "effect of scavenger on MM-induced ROS generation", "setting": "C. albicans [2]", "value": "reduced ROS generation"}, {"measurement": "effect of scavenger on MM-induced killing", "setting": "C. albicans [2]", "value": "did not affect survival following MM treatment"}]}, {"compound": "CO[C@@H]1[C@@H](OC(N)=O)[C@@H](O)[C@H](Oc2ccc3c(O)c(NC(=O)c4ccc(O)c(CC=C(C)C)c4)c(=O)oc3c2C)OC1(C)C", "note": "[Novobiocin]", "values": [{"measurement": "MIC", "setting": "E. coli [4]", "value": 64, "unit": "µg/mL"}, {"measurement": "potentiation of antibiotic by MM pre-treatment", "setting": "E. coli [5]; E. coli", "value": "up to 64 fold"}, {"measurement": "FIC index with MM", "setting": "E. coli [5]; E. coli, MM and novobiocin", "value": "≤ 0.5"}, {"measurement": "antibiotic MIC after pre-treatment with MM 1", "setting": "E. coli [5]; E. coli, light-activated MM 1", "value": 0.0075, "unit": "µg/mL"}, {"measurement": "antibiotic MIC after pre-treatment with MM 5", "setting": "E. coli [5]; E. coli, light-activated MM 5", "value": 0.0075, "unit": "µg/mL"}, {"measurement": "antibiotic MIC after pre-treatment with MM 6", "setting": "E. coli [5]; E. coli, light-activated MM 6", "value": 0.015, "unit": "µg/mL"}, {"measurement": "MIC", "setting": "E. coli [5]; Escherichia coli, 18 h, read-out: antibiotic MIC alone", "value": 0.48, "unit": "µg/mL"}]}, {"compound": "CN(C)[C@@H]1C(O)=C(C(N)=O)C(=O)[C@@]2(O)C(O)=C3C(=O)c4c(O)cccc4[C@@](C)(O)[C@H]3C[C@@H]12", "note": "[Tetracycline, reference compound]", "values": [{"measurement": "MIC", "setting": "A. baumannii", "value": 8, "unit": "µg/mL"}]}, {"compound": "COc1cc(Cc2cnc(N)nc2N)cc(OC)c1OC", "note": "[Trimethoprim, reference compound]", "values": [{"measurement": "MIC", "setting": "E. coli [4]", "value": 1, "unit": "µg/mL"}, {"measurement": "MIC", "setting": "P. aeruginosa; Pseudomonas aeruginosa, read-out: Antibiotic MIC", "value": 128, "unit": "µg/mL"}]}, {"compound": "Gentamicin [reference compound]", "values": [{"measurement": "Antibiotic MIC", "setting": "E. coli [4]", "value": 1, "unit": "μg per mL"}, {"measurement": "Antibiotic MIC", "setting": "P. aeruginosa; P. aeruginosa, broth microdilution", "value": 1, "unit": "μg per mL"}, {"measurement": "Antibiotic MIC", "setting": "S. aureus", "value": 2, "unit": "μg per mL"}]}]}
